{"source": "paper PMC10287555", "about": "“Camonsertib in DNA damage response-deficient advanced solid tumors: phase 1 trial results” (Nature Medicine, 2023)", "assay": "Dose-limiting toxicities (DLTs), TRESR phase 1 module 1", "assay_type": "in vivo", "procedure": "The starting dose of camonsertib was 5 mg administered on a 5-d-on, 2-d-off (5/2) schedule given once daily (QD) in 21-d cycles. Dose escalation proceeded until a total daily dose of 160 mg was achieved. Per protocol, based on emerging safety, PK and PD data, an alternative schedule of 3 d on, 4 d off (3/4) was then started at a daily dose of 120 mg and escalated to 200 mg, and 160 mg QD (3/4) of camonsertib was proposed as the preliminary RP2D based on long-term (>6 weeks) safety, tolerability, PK and PD data. The dose-limiting toxicity (DLT) rate at the proposed preliminary RP2D was 8% (2/25). All DLTs comprised hematologic toxicities (Table 2).\nPatients were treated with single-agent camonsertib at doses ranging from 5–160 mg QD to 40–80 mg twice daily, administered orally on a 5/2 or 3/4 weekly schedule. An intermittent schedule of 2 weeks on/1 week off was also evaluated at dose levels of 160 mg and 200 mg QD (3/4). Each cycle comprised 21 d of treatment. Module 1 dose-escalation decisions based on patients in M1a and M1b cohorts were governed by the Bayesian optimal interval (BOIN) design starting with single-patient cohorts in M1a. […] Escalation of M1a and M1b occurred in parallel until the maximum tolerated dose (MTD) […] RP2D was determined for each schedule. Backfill cohorts were employed to (1) aid in the assessment of possible anti-tumor activity in a subset of patients with a specific gene abnormality or tumor type; (2) allow additional PK/PD evaluation; and (3) further assess drug-related toxicities. Patient safety review and dose decisions were carried out by a Safety Review Committee, comprised of the study investigators and sponsor representatives.\nAll safety and efficacy endpoints were summarized with descriptive statistics. Safety data were summarized using the safety population, which consisted of all patients who received at least one dose of RP-3500. The DLT rate was based on the DLT-evaluable population, which included those patients in dose-escalation cohorts (M1a and M1b only) receiving ≥80% of planned doses of camonsertib, who completed all required safety evaluations and were observed through the end of cycle 1 or patients who experienced a DLT. Due to the different number of dose levels expected and the exploratory nature of the phase 1 study, anti-tumor activity parameters were primarily based on patients who received ≥1 dose of RP-3500 and had ≥1 post-baseline tumor assessment by RECIST 1.1 and/or GCIG CA-125 or PCWG3 PSA criteria, with an initial dose level of >100 mg d^−1 (dose level predicted to achieve efficacious exposure), as defined in the statistical analysis plan. Additional subgroups based on tumor types or genotypes of interest were based on this efficacy analysis set. […] Patients were, therefore, enrolled in the study and endpoints assessed regardless of sex, gender and race. No formal statistical tests were performed in this study. However, nominal P values (two-sided) were provided for the hypothesis-generating purpose of selected exploratory endpoints, without adjusting for multiplicity. A log-rank test was used in between-group comparisons for the time-to-event endpoints (PFS and DOT), and Fisher’s exact test was used in between-group comparisons for the binary endpoints (CBR, MR, etc.).", "key": {"[1]": {"conditions": "3/4 schedule, 60 mg BID (n = 3)"}, "[2]": {"conditions": "3/4 schedule, 120 mg QD (n = 17)"}, "[3]": {"conditions": "3/4 schedule, 160 mg QD (n = 25)"}, "[4]": {"conditions": "3/4 schedule, 2/1w, 160 mg QD (n = 25)"}, "[5]": {"conditions": "3/4 schedule, 2/1w, 200 mg QD (n = 5)"}, "[6]": {"conditions": "5/2 schedule, 40 mg BID (n = 1)"}, "[7]": {"conditions": "5/2 schedule, 100 mg QD (n = 4)"}, "[8]": {"conditions": "5/2 schedule, 120 mg QD (n = 4)"}, "[9]": {"conditions": "5/2 schedule, 160 mg QD (n = 3)"}, "[10]": {"conditions": "5/2 schedule, 5–80 mg QD (n = 5)"}}}
{"compound": "C[C@@H]1COCCN1c1cc([C@]2(O)C[C@H]3CC[C@@H](C2)O3)c2cnn(-c3cc[nH]n3)c2n1", "note": "[camonsertib]", "values": [{"measurement": "DLT rate at the proposed preliminary RP2D", "setting": "160 mg QD (3/4), 2/25", "result": 8, "unit": "%"}, {"measurement": "Any DLT event", "setting": "[1]", "result": "1 (33.3) n (%)"}, {"measurement": "DLT: Anemia", "setting": "[1]", "result": "1 (33.3) n (%)"}, {"measurement": "DLT: Febrile neutropenia", "setting": "[1]", "result": "0 n (%)"}, {"measurement": "DLT: Neutrophil count decreased", "setting": "[1]", "result": "0 n (%)"}, {"measurement": "DLT: Platelet count decreased", "setting": "[1]", "result": "0 n (%)"}, {"measurement": "Any DLT event", "setting": "[2]", "result": "1 (5.9) n (%)"}, {"measurement": "DLT: Anemia", "setting": "[2]", "result": "1 (5.9) n (%)"}, {"measurement": "DLT: Febrile neutropenia", "setting": "[2]", "result": "0 n (%)"}, {"measurement": "DLT: Neutrophil count decreased", "setting": "[2]", "result": "0 n (%)"}, {"measurement": "DLT: Platelet count decreased", "setting": "[2]", "result": "0 n (%)"}, {"measurement": "Any DLT event", "setting": "[3]", "result": "2 (8.0) n (%)"}, {"measurement": "DLT: Anemia", "setting": "[3]", "result": "2 (8.0) n (%)"}, {"measurement": "DLT: Febrile neutropenia", "setting": "[3]", "result": "0 n (%)"}, {"measurement": "DLT: Neutrophil count decreased", "setting": "[3]", "result": "0 n (%)"}, {"measurement": "DLT: Platelet count decreased", "setting": "[3]", "result": "0 n (%)"}, {"measurement": "Any DLT event", "setting": "[4]", "result": "2 (8.0) n (%)"}, {"measurement": "DLT: Anemia", "setting": "[4]", "result": "1 (4.0) n (%)"}, {"measurement": "DLT: Febrile neutropenia", "setting": "[4]", "result": "0 n (%)"}, {"measurement": "DLT: Neutrophil count decreased", "setting": "[4]", "result": "1 (4.0) n (%)"}, {"measurement": "DLT: Platelet count decreased", "setting": "[4]", "result": "0 n (%)"}, {"measurement": "Any DLT event", "setting": "[5]", "result": "1 (20.0) n (%)"}, {"measurement": "DLT: Anemia", "setting": "[5]", "result": "1 (20.0) n (%)"}, {"measurement": "DLT: Febrile neutropenia", "setting": "[5]", "result": "1 (20.0) n (%)"}, {"measurement": "DLT: Neutrophil count decreased", "setting": "[5]", "result": "0 n (%)"}, {"measurement": "DLT: Platelet count decreased", "setting": "[5]", "result": "1 (20.0) n (%)"}, {"measurement": "Any DLT event", "setting": "[6]", "result": "0 n (%)"}, {"measurement": "DLT: Anemia", "setting": "[6]", "result": "0 n (%)"}, {"measurement": "DLT: Febrile neutropenia", "setting": "[6]", "result": "0 n (%)"}, {"measurement": "DLT: Neutrophil count decreased", "setting": "[6]", "result": "0 n (%)"}, {"measurement": "DLT: Platelet count decreased", "setting": "[6]", "result": "0 n (%)"}, {"measurement": "Any DLT event", "setting": "[7]", "result": "2 (50.0) n (%)"}, {"measurement": "DLT: Anemia", "setting": "[7]", "result": "1 (25.0) n (%)"}, {"measurement": "DLT: Febrile neutropenia", "setting": "[7]", "result": "0 n (%)"}, {"measurement": "DLT: Neutrophil count decreased", "setting": "[7]", "result": "0 n (%)"}, {"measurement": "DLT: Platelet count decreased", "setting": "[7]", "result": "1 (25.0) n (%)"}, {"measurement": "Any DLT event", "setting": "[8]", "result": "0 n (%)"}, {"measurement": "DLT: Anemia", "setting": "[8]", "result": "0 n (%)"}, {"measurement": "DLT: Febrile neutropenia", "setting": "[8]", "result": "0 n (%)"}, {"measurement": "DLT: Neutrophil count decreased", "setting": "[8]", "result": "0 n (%)"}, {"measurement": "DLT: Platelet count decreased", "setting": "[8]", "result": "0 n (%)"}, {"measurement": "Any DLT event", "setting": "[9]", "result": "0 n (%)"}, {"measurement": "DLT: Anemia", "setting": "[9]", "result": "0 n (%)"}, {"measurement": "DLT: Febrile neutropenia", "setting": "[9]", "result": "0 n (%)"}, {"measurement": "DLT: Neutrophil count decreased", "setting": "[9]", "result": "0 n (%)"}, {"measurement": "DLT: Platelet count decreased", "setting": "[9]", "result": "0 n (%)"}, {"measurement": "Any DLT event", "setting": "[10]", "result": "0 n (%)"}, {"measurement": "DLT: Anemia", "setting": "[10]", "result": "0 n (%)"}, {"measurement": "DLT: Febrile neutropenia", "setting": "[10]", "result": "0 n (%)"}, {"measurement": "DLT: Neutrophil count decreased", "setting": "[10]", "result": "0 n (%)"}, {"measurement": "DLT: Platelet count decreased", "setting": "[10]", "result": "0 n (%)"}, {"measurement": "Preliminary recommended phase 2 dose (RP2D)", "setting": "QD, 3 d on/4 d off (weekly on days 1–3)", "result": 160, "unit": "mg"}, {"measurement": "Any DLT event", "setting": "Total DLT evaluable (n = 92)", "result": "9 (9.8) n (%)"}, {"measurement": "DLT: Anemia", "setting": "Total DLT evaluable (n = 92)", "result": "7 (7.6) n (%)"}, {"measurement": "DLT: Febrile neutropenia", "setting": "Total DLT evaluable (n = 92)", "result": "1 (1.1) n (%)"}, {"measurement": "DLT: Neutrophil count decreased", "setting": "Total DLT evaluable (n = 92)", "result": "1 (1.1) n (%)"}, {"measurement": "DLT: Platelet count decreased", "setting": "Total DLT evaluable (n = 92)", "result": "2 (2.2) n (%)"}]}
